The record followed here is US20240246940A1, “HETEROARYL DERIVATIVE COMPOUND AND USE THEREOF” (VORONOI INC., priority 2021, published 2024).

Like-named read-outs stand apart in the source and are kept apart here.

Test [1] has as its system HaCaT cells (EGFR expressing cell line). Briefly: HaCaT cell proliferation inhibitory activity (CellTiter-Glo, 72 hours). In kind it is cell-based. The essentials: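 Cells seeded 24 h (HaCaT 3000/well, N-87 5000/well) or 48 h (SK-BR-3, BT-474 5000/well) before 11-point dosing: 0.2 nM–10 μM (SK-BR-3, BT-474), […]–5 μM (N-87), 0.8 nM–45 μM (HaCaT). CellTiter-Glo luminescence read; GI50 from growth relative to control, triplicate.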

The test system of test [2] is BT-474 cells (HER2 overexpressing cell line). Briefly: BT-474 cell proliferation inhibitory activity (CellTiter-Glo, 120 hours). The test is classed as cell-based. As to the method:
To evaluate the cell proliferation inhibitory activity of the compound according to the present invention on HER2 and EGFR kinases, the following method was performed using HER2 overexpressing cell lines (SK-BR-3, BT-474, and N-87) and EGFR expressing cell line (HaCaT).
McCOY'S 5A supplemented with 10% FBS was used for SK-BR-3 cells, RPMI-1640 medium supplemented with 20% FBS was used for BT-474 cancer cells, and RPMI-1640 medium supplemented with 10% FBS was used for N-87 cancer cells. DMEM supplemented with 10% FBS was used for HaCaT cells.
For SK-BR-3 cells, 5000 cells were aliquoted into each well of a white clear bottom 96 well plate (Corning) 48 hours before treatment with the compounds of Examples. For BT-474 cells, 5000 cells were aliquoted into each well of a white clear bottom 96 well plate (Corning) 48 hours before treatment with the compounds of Examples. For N-87 cells, 5000 cells were aliquoted into each well of a white clear bottom 96 well plate (Corning) 24 hours before treatment with the compounds of Examples. For HaCaT cells, 3000 cells were aliquoted into each well of a white clear bottom 96 well plate (Corning) 24 hours before treatment with the compounds of Examples. For SK-BR-3 cells and BT-474 cells, the compounds of Examples were diluted in dimethyl sulfoxide (three-fold dilution, a total of 11 concentrations) and injected each in an amount of 1 μl to a final concentration of 0.2 nM to 10 μM. For N-87 cells, the compounds of Examples were diluted in dimethyl sulfoxide (five-fold dilution, a total of 11 concentrations) and injected each in an amount of 0.5 μl to a final concentration of […] to 5 μM. For HaCaT cells, the compounds of Examples were diluted in dimethyl sulfoxide (three-fold dilution, a total of 11 concentrations) and injected each in an amount of 0.5 μl to a final concentration of 0.8 nM to 45 μM. For the measurement of living cells, the cells were stored at room temperature for 10 minutes using CellTiter-Glo cell viability reagent (Promega) after a certain period of time (SK-BR-3: 120 hours, BT-474: 120 hours, N-87: 72 hours, and HaCaT: 72 hours) post treatment with the compounds of Examples, and the luminescence intensity thereof was measured using a reader (SynergyNeo, Biotek). Each test was repeated three times.
The result values were calculated as a cell growth rate (%) compared to those of the control group. A graph was created using the GraphPad Prism version 5.0 program, and GI50 values were calculated.
(In general: ATP-based viability assays read luminescence as a measure of living cells.)

Consider `C=CC(=O)N1CC2(CCC(Oc3cc4c(Nc5cc(-c6ccco6)ccc5OC)ncnc4cc3OC)C2)C1` (centres unmarked) [Example 221, 1-(6-((4-((5-(furan-2-yl)-2-methoxyphenyl)amino)-7-methoxy-quinazolin-6-yl)oxy)-2-azaspiro[3.4]octan-2-yl)prop-2-en-1-one], for which the 50% growth inhibitory concentration (GI50) (usually the concentration giving 50% growth inhibition) in test [1] (Homo sapiens) is 150 to 1000 nM; in test [2] (Homo sapiens) it was > 1000 nM.

For `C=CC(=O)N1CCC(Oc2cc3c(Nc4cc(-c5cc(OC)c(F)cc5F)ccc4OC)ncnc3cc2OC)CC1` [Example 213, 1-(4-((4-((2′,4′-difluoro-4,5′-dimethoxy-[1,1′-biphenyl]-3-yl)amino)-7-methoxy-quinazolin-6-yl)oxy)piperidin-1-yl)prop-2-en-1-one], the concentration for 50% growth inhibition (GI50) in test [1] (Homo sapiens) and in test [2] (Homo sapiens) was ≤ 150 nM throughout.

Regarding `C=CC(=O)N1CC[C@H](Oc2cc3c(Nc4cc(-c5ccc(F)cc5F)ccc4OC)ncnc3cc2OC)[C@@H](F)C1` [Example 152, 1-((3S,4S)-4-((4-((2′,4′-difluoro-4-methoxy-[1,1′-biphenyl]-3-yl)amino)-7-methoxy-quinazolin-6-yl)oxy)3-fluoropiperidin-1-yl)prop-2-en-1-one], the GI50 in test [1] (Homo sapiens) and in test [2] (Homo sapiens) was 150 to 1000 nM in each case.

As for `C=CC(=O)N1CCC(Oc2cc3c(Nc4cc(-c5ccc(C#N)o5)ccc4OC)ncnc3cc2OC)CC1` [Example 183, 5-(3-((6-((1-acryloyl-piperidin-4-yl)oxy)-7-methoxy-quinazolin-4-yl)amino)-4-methoxyphenyl) furan-2-carbonitrile], the GI50 in test [1] (Homo sapiens) and in test [2] (Homo sapiens) was 150 to 1000 nM in each case.

Consider `C=CC(=O)N1CCC(Oc2cc3c(Nc4cc(-c5ccc(F)cc5F)ccc4OC)ncnc3cc2OCC)CC1` [Example 239, 1-(4-((4-((2′,4′-difluoro-4-methoxy-[1,1′-biphenyl]-3-yl)amino)-7-ethoxyquinazolin-6-yl)oxy)piperidin-1-yl)prop-2-en-1-one], for which the GI50 in test [1] (Homo sapiens) and in test [2] (Homo sapiens) was ≤ 150 nM each time.

On to `C=CC(=O)N1CCC(Oc2cc3c(Nc4cc(-c5ccc(F)c(OCC(F)(F)F)c5)ccc4OC)ncnc3cc2OC)CC1` [Example 214, 1-(4-((4-((4′-fluoro-4-methoxy-3′-(2,2,2-trifluoroethoxy)-[1,1′-biphenyl]-3-yl)amino)-7-methoxy-quinazolin-6-yl)oxy)piperidin-1-yl)prop-2-en-1-one], for which the concentration for 50% growth inhibition (GI50) in test [1] (Homo sapiens) was > 1000 nM; in test [2] (Homo sapiens), ≤ 150 nM.

With `C=CC(=O)N1CCC(Oc2cc3c(Nc4cc(-c5ccc(F)o5)ccc4OC)ncnc3cc2OC)CC1` [Example 88, 1-(4-((4-((5-(5-fluorofuran-2-yl)-2-methoxyphenyl)amino)-7-methoxy-quinazolin-6-yl)oxy)piperidin-1-yl)prop-2-en-1-one], the concentration for 50% growth inhibition (GI50) in test [1] (Homo sapiens) and in test [2] (Homo sapiens) was ≤ 150 nM throughout.

For `C=CC(=O)N1CCC(Oc2cc3c(Nc4cc(-c5cccc(SC)c5)ccc4OC)ncnc3cc2OC)CC1` [Example 205, 1-(4-((7-methoxy-4-((4-methoxy-3′-(methylthio)-[1,1′-biphenyl]-3-yl)amino)quinazolin-6-yl)oxy)piperidin-1-yl)prop-2-en-1-one], the GI50 is > 1000 nM in test [1] (Homo sapiens) and 150 to 1000 nM in test [2] (Homo sapiens).

Take `C=CC(=O)N1CCC(Nc2cc3c(Nc4cc(-c5cccc(C=O)c5)ccc4OC)ncnc3cc2OC)CC1` [Example 209, 3′-((6-((1-acryloyl-piperidin-4-yl)amino)-7-methoxy-quinazolin-4-yl)amino)-4′-methoxy-[1,1′-biphenyl]-3-carbaldehyde]: the figures for the GI50 in test [1] (Homo sapiens) and in test [2] (Homo sapiens) were 150 to 1000 nM and ≤ 150 nM, respectively.

Regarding `C=CC(=O)N1CCC2(CC1)CN(c1cc3c(Nc4cc(-c5ccc(F)cc5F)ccc4OC)ncnc3cc1OC)C2` [Example 325, 1-(2-(4-((2′,4′-difluoro-4-methoxy-[1,1′-biphenyl]-3-yl)amino)-7-methoxyquinazolin-6-yl)-2,7-diazaspiro[3.5]nonan-7-yl)prop-2-en-1-one], the GI50 in test [1] (Homo sapiens) and in test [2] (Homo sapiens) was 150 to 1000 nM in each case.

Take `C=CC(=O)N1CCC(Oc2cc3c(Nc4cc(-c5ccc6c(c5)OCO6)ccc4OC)ncnc3cc2OC)CC1` [Example 153, 1-(4-((4-((5-(benzo[d][1,3]dioxol-5-yl)-2-methoxyphenyl)amino)-7-methoxy-quinazolin-6-yl)oxy)piperidin-1-yl)prop-2-en-1-one]: the GI50 was > 1000 nM in test [1] (Homo sapiens) and 150 to 1000 nM in test [2] (Homo sapiens).

Turning to `C=CC(=O)N1CCC(Oc2cc(OC)cc3ncnc(Nc4cc(-c5ccco5)ccc4OC)c23)C(F)(F)C1` (centres unmarked) [Example 99, 1-(3,3-difluoro-4-((4-((5-(furan-2-yl)-2-methoxyphenyl)amino)-7-methoxy-quinazolin-5-yl)oxy)piperidin-1-yl)prop-2-en-1-one], the 50% growth inhibitory concentration (GI50) in test [1] and in test [2] was ≤ 150 nM in each case.

Turning to `C=CC(=O)N1CCC(Oc2cc3c(Nc4cc(-c5cccc(OC(F)(F)F)c5)ccc4OC)ncnc3cc2OC)CC1` [Example 211, 1-(4-((7-methoxy-4-((4-methoxy-3′-(trifluoro-methoxy)-[1,1′-biphenyl]-3-yl)amino)quinazolin-6-yl)oxy)piperidin-1-yl)prop-2-en-1-one], the results for the concentration for 50% growth inhibition (GI50) in test [1] (Homo sapiens) and in test [2] (Homo sapiens) were 150 to 1000 nM and ≤ 150 nM, respectively.

With `C=CC(=O)N1CC2(C1)CN(c1cc3c(Nc4cc(-c5ccco5)ccc4OC)ncnc3cc1OC)C2` [Example 326, 1-(6-(4-((5-(furan-2-yl)-2-methoxyphenyl)amino)-7-methoxyquinazolin-6-yl)-2,6-diazaspiro[3.3]heptan-2-yl)prop-2-en-1-one], the GI50 in test [1] (Homo sapiens) was 150 to 1000 nM; in test [2] (Homo sapiens), > 1000 nM.

Consider `C=CC(=O)N1CCC(Oc2cc3c(Nc4cc(-c5ccc(F)c(C)c5F)ccc4OC)ncnc3cc2OC)CC1` [Example 207, 1-(4-((4-((2′,4′-difluoro-4-methoxy-3′-methyl-[1,1′-biphenyl]-3-yl)amino)-7-methoxy-quinazolin-6-yl)oxy)piperidin-1-yl)prop-2-en-1-one], for which the 50% growth inhibitory concentration (GI50) in test [1] (Homo sapiens) is 150 to 1000 nM; in test [2] (Homo sapiens), ≤ 150 nM.

Regarding `C=CC(=O)N1CCC(Oc2cc3c(Nc4cc(C5=CCOCC5)ccc4OC)ncnc3cc2OC)CC1` [Example 216, 1-(4-((4-((5-(3,6-dihydro-2H-pyran-4-yl)-2-methoxyphenyl)amino)-7-methoxy-quinazolin-6-yl)oxy)piperidin-1-yl)prop-2-en-1-one], the GI50 in test [1] (Homo sapiens) and in test [2] (Homo sapiens) was 150 to 1000 nM in each case.

In the case of `C=CC(=O)N1CC(Oc2cc3c(Nc4cc(-c5cccc(N(C)C)c5)ccc4OC)ncnc3cc2OC)C1` [Example 199, 1-(3-((4-((3′-(dimethylamino)-4-methoxy-[1,1′-biphenyl]-3-yl)amino)-7-methoxy-quinazolin-6-yl)oxy)azetidin-1-yl)prop-2-en-1-one], the GI50 in test [1] (Homo sapiens) is 150 to 1000 nM; in test [2] (Homo sapiens) it was ≤ 150 nM.

Consider `C=CC(=O)N1CC[C@H](Oc2cc3c(Nc4cc(-c5ccco5)ccc4OC)ncnc3cc2OC)[C@@H](F)C1` [Example 174, 1-((3S,4S)-3-fluoro-4-((4-((5-(furan-2-yl)-2-methoxyphenyl)amino)-7-methoxy-quinazolin-6-yl)oxy)piperidin-1-yl)prop-2-en-1-one], for which the GI50 in test [1] (Homo sapiens) and in test [2] (Homo sapiens) was ≤ 150 nM each time.

In the case of `C=CC(=O)N1CCC(Oc2cc3c(Nc4cc(-c5cccc([N+](=O)[O-])c5)ccc4OC)ncnc3cc2OC)CC1` [Example 197, 1-(4-((7-methoxy-4-((4-methoxy-3′-nitro-[1,1′-biphenyl]-3-yl)amino)quinazolin-6-yl)oxy)piperidin-1-yl)prop-2-en-1-one], the GI50 in test [1] (Homo sapiens) is > 1000 nM; in test [2] (Homo sapiens), 150 to 1000 nM.
